# Experimental data published in US8716528B2, “Aryloxy amine compounds and their use as sodium channel modulators” (Howard Florey Institute, priority 2007, dated 2014).
# Values joined by “and” are separate entries in the source; they are usually repeats but may differ in a detail not shown here. Equal entries are not always repeated. “Also recorded” adds a separate entry of the source. Marks after values point to notes of the source that are not given here.
# Key:
# [1] = target: Sodium Channel Binding Site 2 in Rat Brain Membranes; details: 3H-batrachotoxinin 5 nM, 37° C. 60 minutes, read-out: IC50 (inhibition of specific binding of 3H-batrachotoxinin)
# [2] = tested on: Male Hooded Wistar rats, spinal cord injury (SCI); experiment: Reversible spinal cord injury model: BBB open-field locomotor score; type: in vivo, rat; details: i.p. 3 h after injury and twice daily, 15 days; versus vehicle treated controls
# Method: (§1) Male Hooded Wistar rats were anesthetized (2% isoflurane/98% oxygen), and laminectomy performed at spinal level T12. An inflatable balloon catheter was inserted rostral, underneath the vertebra, to T10 and inflated for 5 minutes, causing reversible paraplegia (Feldblum, et al., 2000). […] Rats had almost complete functional recovery by 15 d. Compound 1 (15 nmol/g and 60 nmol/g), mexiletine (60 nmol/g) and vehicle (5 ml/kg) were administered i.p, at 3 h after the injury and twice daily thereafter, until killed. Behavioural tests were conducted every 3 days. At 15 d post-injury, rats were anesthetized and transcardially perfused, to fix the spinal cords. Sections were cut and processed to examine the size of the cyst and modulatory effects of treatments or control on lesion formation.
# BBB scale: Effects of Compound 1 and mexiletine treatment on the time course of functional recovery, following SCI, assessed with the BBB open-field locomotor score. […] Each rat acted as its own control, and results after SCI compared with pre-injury scores (0 h after SCI). Data are mean±SEM. ANOVA followed by Bonferroni post-test: [F(24,273)=10.57, P<0.0001], *P<0.05, **P<0.01, ***P<0.001 Compound 1 (60 nmol/g) versus the SCI+saline controls at the same time; †P<0.05 Compound 1 (15 nmol/g) or mexiletine (60 nmol/g) versus SCI+saline controls at the same time.
# [3] = tested on: Male Hooded Wistar rats, spinal cord injury (SCI); experiment: Reversible spinal cord injury model: horizontal ladder test; type: in vivo, rat; details: versus SCI+saline controls at the same time
# Method: as §1
# Ladder test: In the horizontal ladder test, rats are placed onto a beam which is randomly missing rungs, this prevents rats from adapting and compensating for any deficits following SCI. […] The results are depicted in FIG. 4. […] Data is expressed as the percentage of foot misplacements made of the total number of steps taken, using a combined score for both hindlimbs. […] Each rat acted as its own control, and results compared with pre-injury scores (0 h after SCI). […]
# [4] = tested on: Male Hooded Wistar rats, spinal cord injury (SCI); experiment: Reversible spinal cord injury model: ledged beam task; type: in vivo, rat; details: for use of the support ledge, ledged beam task: after SCI, versus saline-treated controls
# Method: as §1
# Ledged beam: Effects of Compound 1 and mexiletine, and SCI+saline controls on recovery of function following spinal cord compression injury as assessed by the number of steps using the support ledge on the ledged beam task. The results are depicted in FIG. 5. Sham-SCI rats walked the length of the ledged beam with approximately 10% of steps made on the supporting ledge. […] Data is expressed as ledge use/errors made as a percentage of total steps taken with both hindlimbs after SCI. Each rat acted as its own control, and results compared with pre-injury scores (0 h after SCI). ANOVA followed by Bonferroni post-test: [F(24,273)=5.12, P<0.0001], *P<0.05, **P<0.01, ***P<0.001 Compound 1 (60 nmol/g) versus the SCI+saline controls at the same time; †P<0.05 Compound 1 (15 nmol/g) versus SCI+saline controls at the same time. […] Data are mean±SEM. n=6-11 rats in each group.
# [5] = tested on: Male Hooded Wistar rats, spinal cord injury (SCI); experiment: Reversible spinal cord injury model: volume of damage from H & E stained sections; type: in vivo, rat; details: equivalent mole dose, compared to SCI+saline, n=4
# Method: as §1
# (§2) Volume of damage: Effects of treatment were measured first from H & E stained sections. […] Data are mean±SEM of measurements from n=4 rats per treatment group. Secondly, the sparing of spinal cord tissue by Compound 1 and mexiletine treatment was assessed by more detailed histological staining techniques.
# [6] = tested on: Male Hooded Wistar rats, spinal cord injury (SCI); experiment: Reversible spinal cord injury model: percentage of white and gray matter spared at the epicentre (H & E, Luxol Fast blue, cresyl violet); type: in vivo, rat
# Method: as §1, §2
# [7] = tested on: Male Hooded Wistar rats, spinal cord injury (SCI); experiment: Reversible spinal cord injury model: neuronal cell body counts by NeuN immunostaining; type: in vivo, rat; details: for loss of white matter and gray matter (rostro-caudal serial sections, neuronal cell body counts): after SCI, versus saline treatment
# Method: as §1, §2
# [8] = tested on: Male Sprague-Dawley rats, L5 nerve ligated and cut; experiment: Rat L5 nerve cut model of neuropathic pain, Von Frey filament withdrawal threshold (allodynia); type: in vivo; details: for grams of force needed to withdraw left limb: left hind paw, nerve cut; for grams of force needed to withdraw left limb / grams of force needed to withdraw right limb: individual rats #17-#20; for effect on allodynia: left paw, 4 rats; for grams of force needed to withdraw right limb: right hind paw, nerve intact
# Method: The following method is based on the method published by Chaplan et al, 1994. Male Sprague-Dawley rats from one litter were weaned when 19 days old and acclimatized for the next two days in the Animal House where the experiment was to be carried out. From days 21 to 25, rats were tested using a set of Von Frey monofilaments to test the mechanical withdrawal threshold of the hindpaws. The monofilaments were applied in increasing force until the rat withdrew the hind paw being tested. […] Rats were anaesthetized with a halothane/oxygen (5:95) gas mixture and a dorsal midline incision was made on the rat's lower back to expose the left lumbar region either side of the hip. Bone was clipped away to expose the L4 and L5 nerves distal to their emergence from the intervertebral foramina. The L5 nerve was then isolated using a glass hook, ligated and cut on the peripheral side of the ligation. The incision was then closed with suture threads and the anaesthetic gas discontinued. The next day rats underwent testing with the graded Von Frey filaments to the hind paws to determine if allodynia was present in the left paw as compared to the right hind paw. Testing was repeated on these rats until they were 28 days old. […] Rats were then tested with graded Von Frey filaments at 45 minutes and 90 minutes after injection in order to determine if allodynia had been blocked.
# [9] = +0.5 mm from epicentre, 60 nmol/g
# [10] = +1 mm from epicentre, 60 nmol/g
# [11] = +1.5 mm from epicentre, 60 nmol/g
# [12] = +2 mm from epicentre, 60 nmol/g
# [13] = +2.5 mm from epicentre, 60 nmol/g
# [14] = −0.5 mm from epicentre, 60 nmol/g
# [15] = −1 mm from epicentre, 60 nmol/g
# [16] = −1.5 mm from epicentre, 60 nmol/g
# [17] = −2 mm from epicentre, 60 nmol/g
# [18] = −2.5 mm from epicentre, 60 nmol/g
structure (smiles),measurement,setting,value
COc1cccc(OC)c1OCCCNCc1cc(C(C)(C)C)c(O)c(C(C)(C)C)c1 [Compound 3],IC50,[1],107 nM
"Cc1cccc(C)c1OCCCNCc1ccc(N2N=CC(C)C2=O)cc1 (stereo not shown) [Comparative A, reference compound]",IC50,[1],11000 nM
CC(C)c1cccc(C(C)C)c1OCCCNCc1cc(C(C)(C)C)c(O)c(C(C)(C)C)c1 [Compound 4],IC50,[1],90 nM
CC(C)(C)c1cc(CNCCCOc2ccncc2)cc(C(C)(C)C)c1O [Compound 7],IC50,[1],870 nM
CC(C)c1cncc(C(C)C)c1OCCCNCc1cc(C(C)(C)C)c(O)c(C(C)(C)C)c1 [Compound 5],IC50,[1],380 nM
CC(C)(C)c1cc(CNCCCOc2ccccc2)cc(C(C)(C)C)c1O [Compound 6],IC50,[1],236 nM
"Cc1cccc(C)c1OCC(C)N (stereo not shown) [Mexiletine, mexiletine, reference compound]",IC50,[1],11000 nM
same,"rate of functional recovery following SCI, BBB open-field locomotor score",[2],significantly increased the rate of recovery
same,"number of hind-limb foot misplacements, horizontal ladder test",[3],decreased the number of hind-limb foot misplacements
same,"ledge use, statistical difference from SCI+saline","[4]; 60 nmol/g, Bonferroni post-test",no significant difference from SCI+saline at any time
same,"use of the support ledge, ledged beam task",[4],significantly reduced
same,volume of damage (H & E stained sections),[5],reduced damage compared to SCI+saline
same,"GRAY MATTER spared, % MEAN",[6]; 60 nmol/g,77.9* %
same,"TOTAL TISSUE spared, % MEAN",[6]; 60 nmol/g,70.5* %
same,"WHITE MATTER spared, % MEAN",[6]; 60 nmol/g,66.3* %
same,"No. of motor neurons Per sq mm, Mean","[7]; 0.0 mm (epicentre), 60 nmol/g",7* Per sq mm
same,"No. of motor neurons Per sq mm, Mean",[7]; [9],10* Per sq mm
same,"No. of motor neurons Per sq mm, Mean",[7]; [10],17* Per sq mm
same,"No. of motor neurons Per sq mm, Mean",[7]; [11],24* Per sq mm
same,"No. of motor neurons Per sq mm, Mean",[7]; [12],30 Per sq mm
same,"No. of motor neurons Per sq mm, Mean",[7]; [13],27 Per sq mm
same,"loss of white matter and gray matter (rostro-caudal serial sections, neuronal cell body counts)",[7],reduced loss of both white matter and gray matter
same,"No. of motor neurons Per sq mm, Mean",[7]; [14],11* Per sq mm
same,"No. of motor neurons Per sq mm, Mean",[7]; [15],17* Per sq mm
same,"No. of motor neurons Per sq mm, Mean",[7]; [16],26 Per sq mm
same,"No. of motor neurons Per sq mm, Mean",[7]; [17],33 Per sq mm
same,"No. of motor neurons Per sq mm, Mean",[7]; [18],31 Per sq mm
Cc1cccc(C)c1OCC(C)NCc1cc(C(C)(C)C)c(O)c(C(C)(C)C)c1 (stereo not shown) [Compound 1],IC50,[1],134 nM
same,grams of force needed to withdraw left limb,[8]; 45 min post i.p. 70 nmol/g,11.44 g and 17.8 g (3×)
same,grams of force needed to withdraw left limb,[8]; 90 min post i.p. 70 nmol/g,3.7 g and 10.9 g and 17.8 g (2×)
same,effect on allodynia,[8]; 45 minutes after i.p. 70 nmol/g,allodynia had been completely eliminated in 3 of the rats
same,effect on allodynia,[8]; 90 minutes after i.p. 70 nmol/g,allodynia had still been eliminated in 2 rats
same,grams of force needed to withdraw right limb,[8]; 45 min post i.p. 70 nmol/g,17.8 g
same,grams of force needed to withdraw right limb,[8]; 90 min post i.p. 70 nmol/g,17.8 g
same,generalized anaesthesia (response of right hindpaw to filaments),"[8]; right hindpaw, 45 or 90 minutes after injection",did not cause a generalized anaesthesia
same,"rate of functional recovery following SCI, BBB open-field locomotor score",[2],significantly increased the rate of recovery
same,"number of hind-limb foot misplacements, horizontal ladder test",[3],decreased the number of hind-limb foot misplacements
same,"use of the support ledge, ledged beam task",[4],significantly reduced
same,volume of damage (H & E stained sections),[5],reduced damage compared to SCI+saline
same,"GRAY MATTER spared, % MEAN",[6]; 15 nmol/g,80* %
same,"TOTAL TISSUE spared, % MEAN",[6]; 15 nmol/g,74.3* %
same,"WHITE MATTER spared, % MEAN",[6]; 15 nmol/g,63.6* %
same,"GRAY MATTER spared, % MEAN",[6]; 60 nmol/g,88.9* %
same,"TOTAL TISSUE spared, % MEAN",[6]; 60 nmol/g,83.9* %
same,"WHITE MATTER spared, % MEAN",[6]; 60 nmol/g,81.1* %
same,"No. of motor neurons Per sq mm, Mean","[7]; 0.0 mm (epicentre), 15 nmol/g",9* Per sq mm
same,"No. of motor neurons Per sq mm, Mean","[7]; 0.0 mm (epicentre), 60 nmol/g",15* Per sq mm
same,"No. of motor neurons Per sq mm, Mean","[7]; +0.5 mm from epicentre, 15 nmol/g",10* Per sq mm
same,"No. of motor neurons Per sq mm, Mean",[7]; [9],16* Per sq mm
same,"No. of motor neurons Per sq mm, Mean","[7]; +1 mm from epicentre, 15 nmol/g",14* Per sq mm
same,"No. of motor neurons Per sq mm, Mean",[7]; [10],22* Per sq mm
same,"No. of motor neurons Per sq mm, Mean","[7]; +1.5 mm from epicentre, 15 nmol/g",25* Per sq mm
same,"No. of motor neurons Per sq mm, Mean",[7]; [11],29* Per sq mm
same,"No. of motor neurons Per sq mm, Mean","[7]; +2 mm from epicentre, 15 nmol/g",28 Per sq mm
same,"No. of motor neurons Per sq mm, Mean",[7]; [12],28 Per sq mm
same,"No. of motor neurons Per sq mm, Mean","[7]; +2.5 mm from epicentre, 15 nmol/g",29 Per sq mm
same,"No. of motor neurons Per sq mm, Mean",[7]; [13],30 Per sq mm
same,"loss of white matter and gray matter (rostro-caudal serial sections, neuronal cell body counts)",[7],reduced loss of both white matter and gray matter; also recorded: more effective than Mexiletine
same,"No. of motor neurons Per sq mm, Mean","[7]; −0.5 mm from epicentre, 15 nmol/g",11* Per sq mm
same,"No. of motor neurons Per sq mm, Mean",[7]; [14],17* Per sq mm
same,"No. of motor neurons Per sq mm, Mean","[7]; −1 mm from epicentre, 15 nmol/g",18* Per sq mm
same,"No. of motor neurons Per sq mm, Mean",[7]; [15],23* Per sq mm
same,"No. of motor neurons Per sq mm, Mean","[7]; −1.5 mm from epicentre, 15 nmol/g",26 Per sq mm
same,"No. of motor neurons Per sq mm, Mean",[7]; [16],26 Per sq mm
same,"No. of motor neurons Per sq mm, Mean","[7]; −2 mm from epicentre, 15 nmol/g",29 Per sq mm
same,"No. of motor neurons Per sq mm, Mean",[7]; [17],30 Per sq mm
same,"No. of motor neurons Per sq mm, Mean","[7]; −2.5 mm from epicentre, 15 nmol/g",27 Per sq mm
same,"No. of motor neurons Per sq mm, Mean",[7]; [18],30 Per sq mm
CC(C)(C)c1cc(CNCCCOc2c(Cl)cccc2Cl)cc(C(C)(C)C)c1O [Compound 2],IC50,[1],105 nM
Cc1cccc(C)c1OCCCNCc1cc(C(C)(C)C)c(O)c(C(C)(C)C)c1 [Compound 8],IC50,[1],179 nM
